Measured values from patent US20250135020A1, “METHODS FOR TREATING NON-MUSCLE INVASIVE BLADDER CANCER (NMIBC) WITH ANTIBODY DRUG CONJUGATES (ADC) THAT BIND TO 191P4D12 PROTEINS” (priority 2021, published 2025).
Non-standard residues stand in square brackets, D forms with d. Residues, ends and D or L forms follow the SMILES beside them. *: point of attachment. Dolaproine = CO[C@@H]([C@@H]1CCCN1)[C@@H](C)C(=O)O; Dil = CC[C@H](C)[C@H](NC)[C@@H](CC(=O)O)OC; X1 = C[C@@H](N*)[C@@H](O)c1ccccc1; NMeV = CN[C@H](C(=O)O)C(C)C

Tested on: Nectin-4 overexpressing bladder carcinoma cells (UM-UC-3-hNectin-4+)
Assay: In vitro cytotoxic activity under conditions that mimic intravesical dosing (Cell TiterGlo)
Assay type: cell-based, human
Settings: UM-UC-3-hNectin-4+ cells; 2 h exposure then wash out vs 96 h; cell death by Cell TiterGlo
Procedure: To assess cytotoxic activity of EV in vitro under conditions that mimic intravesical dosing, Nectin-4 overexpressing bladder carcinoma cells (UM-UC-3-hNectin-4^+) were exposed to either EV, unconjugated anti-Nectin-4 antibody, unconjugated MMAE, or control ADC (FIG. 2). IV dosing was modeled by exposing the cells for 96 hours. Intravesical dosing was modeled with exposures of 2 and 24 hours followed by test article wash out. Cell death was measured using Cell TiterGlo® (Promega Corporation, Madison, WI, USA).

CC[C@H](C)[C@@H]([C@@H](CC(=O)N1CCC[C@H]1[C@H](OC)[C@@H](C)C(=O)N[C@H](C)[C@@H](O)c1ccccc1)OC)N(C)C(=O)[C@@H](NC(=O)[C@@H](NC)C(C)C)C(C)C [unconjugated MMAE, monomethyl auristatin E] (H-[NMeV]V[Dil][Dolaproine]-X1)
Decrease in potency (EC90) on decreasing the exposure from 96 to 2 hours: 44 fold
